Source: ChEMBL document CHEMBL5247643, “Discovery and Characterization of BAY-805, a Potent and Selective Inhibitor of Ubiquitin-Specific Protease USP21” (J Med Chem, 2023)
Active and inactive are the calls of the source. No cut-off for these calls is given here.

Key:
[1] = tested on: Jurkat; assay: Antiproliferative activity against human Jurkat cells assessed as reduction in cell viability up to 30 uM incubated for 72 hrs by CellTiter-Glo luminescent assay; assay type: functional, cell-based
[2] = molecular target: Ubiquitin carboxyl-terminal hydrolase 9X (Homo sapiens) (UniProt Q93008); assay: Inhibition of human USP9X using ubiquitin rhodamine 110 as substrate at 10 to 50 uM by fluorometric assay; settings: dose 10-50 µM
Chain of Ubiquitin carboxyl-terminal hydrolase 9X (Homo sapiens) (Q93008 whole entry): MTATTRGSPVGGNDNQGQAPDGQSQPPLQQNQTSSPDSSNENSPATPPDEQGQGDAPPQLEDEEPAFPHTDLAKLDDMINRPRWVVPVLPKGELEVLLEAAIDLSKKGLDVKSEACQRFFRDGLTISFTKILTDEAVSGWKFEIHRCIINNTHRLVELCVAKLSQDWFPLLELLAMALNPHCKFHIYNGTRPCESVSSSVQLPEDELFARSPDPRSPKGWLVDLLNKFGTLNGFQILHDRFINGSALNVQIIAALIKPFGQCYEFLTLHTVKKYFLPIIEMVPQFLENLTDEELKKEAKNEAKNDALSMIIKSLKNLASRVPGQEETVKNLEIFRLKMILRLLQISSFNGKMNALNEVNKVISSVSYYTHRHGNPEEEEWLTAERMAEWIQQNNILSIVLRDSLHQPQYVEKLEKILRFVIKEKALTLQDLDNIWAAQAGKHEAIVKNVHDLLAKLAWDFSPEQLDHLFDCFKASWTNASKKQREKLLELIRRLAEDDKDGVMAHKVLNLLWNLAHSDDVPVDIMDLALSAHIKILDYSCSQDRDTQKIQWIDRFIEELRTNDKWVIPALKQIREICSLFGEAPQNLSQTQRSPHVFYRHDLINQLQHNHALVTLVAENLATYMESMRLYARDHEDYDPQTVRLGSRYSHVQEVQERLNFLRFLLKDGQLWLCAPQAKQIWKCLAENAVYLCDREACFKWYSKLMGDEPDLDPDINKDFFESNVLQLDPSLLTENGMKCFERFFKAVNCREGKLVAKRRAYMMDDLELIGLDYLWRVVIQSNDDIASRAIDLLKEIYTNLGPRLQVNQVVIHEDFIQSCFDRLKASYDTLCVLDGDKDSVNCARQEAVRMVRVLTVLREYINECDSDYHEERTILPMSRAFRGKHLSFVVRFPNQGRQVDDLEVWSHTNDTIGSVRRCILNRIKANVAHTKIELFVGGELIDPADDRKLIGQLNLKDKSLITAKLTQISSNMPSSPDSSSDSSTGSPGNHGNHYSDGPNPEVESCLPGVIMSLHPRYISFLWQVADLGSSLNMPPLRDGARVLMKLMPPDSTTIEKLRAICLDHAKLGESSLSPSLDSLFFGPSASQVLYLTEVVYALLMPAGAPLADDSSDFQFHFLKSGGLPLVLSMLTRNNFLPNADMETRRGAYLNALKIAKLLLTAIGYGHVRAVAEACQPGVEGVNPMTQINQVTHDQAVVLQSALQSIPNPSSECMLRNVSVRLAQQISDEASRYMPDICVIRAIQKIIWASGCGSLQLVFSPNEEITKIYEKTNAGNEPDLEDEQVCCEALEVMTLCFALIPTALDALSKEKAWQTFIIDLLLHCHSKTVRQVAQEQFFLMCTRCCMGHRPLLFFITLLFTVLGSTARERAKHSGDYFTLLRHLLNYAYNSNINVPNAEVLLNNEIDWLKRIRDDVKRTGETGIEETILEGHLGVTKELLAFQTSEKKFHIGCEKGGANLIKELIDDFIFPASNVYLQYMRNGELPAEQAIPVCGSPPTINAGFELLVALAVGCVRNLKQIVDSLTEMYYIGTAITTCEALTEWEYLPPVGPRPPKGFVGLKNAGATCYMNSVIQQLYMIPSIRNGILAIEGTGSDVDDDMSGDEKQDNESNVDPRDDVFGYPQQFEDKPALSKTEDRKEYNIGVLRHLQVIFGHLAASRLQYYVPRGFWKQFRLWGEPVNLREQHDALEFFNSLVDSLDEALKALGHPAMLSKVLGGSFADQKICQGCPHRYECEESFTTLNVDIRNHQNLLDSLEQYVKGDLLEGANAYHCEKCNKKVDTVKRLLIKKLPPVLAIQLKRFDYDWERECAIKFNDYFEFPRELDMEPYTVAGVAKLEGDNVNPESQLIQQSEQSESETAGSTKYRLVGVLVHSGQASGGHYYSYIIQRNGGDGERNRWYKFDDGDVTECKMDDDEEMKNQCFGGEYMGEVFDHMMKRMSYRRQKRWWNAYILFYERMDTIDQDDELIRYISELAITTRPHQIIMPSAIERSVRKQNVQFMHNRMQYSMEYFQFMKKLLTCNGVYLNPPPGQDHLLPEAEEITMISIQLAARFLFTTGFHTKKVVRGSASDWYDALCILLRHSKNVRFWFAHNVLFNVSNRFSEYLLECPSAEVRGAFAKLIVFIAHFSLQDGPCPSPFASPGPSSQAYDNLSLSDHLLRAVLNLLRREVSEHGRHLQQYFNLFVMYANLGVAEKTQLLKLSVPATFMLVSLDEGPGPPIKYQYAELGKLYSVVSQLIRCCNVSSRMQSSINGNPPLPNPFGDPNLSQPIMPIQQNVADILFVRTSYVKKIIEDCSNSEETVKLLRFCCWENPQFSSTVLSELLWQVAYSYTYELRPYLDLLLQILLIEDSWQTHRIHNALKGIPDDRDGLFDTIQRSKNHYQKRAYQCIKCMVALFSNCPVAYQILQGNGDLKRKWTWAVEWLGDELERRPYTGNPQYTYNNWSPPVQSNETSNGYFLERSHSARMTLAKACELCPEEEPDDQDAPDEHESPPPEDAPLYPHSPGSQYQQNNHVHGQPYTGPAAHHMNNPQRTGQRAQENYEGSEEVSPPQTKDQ

[3] = tested on: A549; assay: Antiproliferative activity against human A549 cells assessed as reduction in cell viability up to 30 uM incubated for 72 hrs by CellTiter-Glo luminescent assay; assay type: functional, cell-based
[4] = molecular target: T1, Ubiquitin carboxyl-terminal hydrolase 8 (Homo sapiens) (UniProt P40818); assay: Inhibition of human USP8 using ubiquitin rhodamine 110 as substrate at 10 to 50 uM by fluorometric assay; settings: dose 10-50 µM
T1 sequence (whole entry): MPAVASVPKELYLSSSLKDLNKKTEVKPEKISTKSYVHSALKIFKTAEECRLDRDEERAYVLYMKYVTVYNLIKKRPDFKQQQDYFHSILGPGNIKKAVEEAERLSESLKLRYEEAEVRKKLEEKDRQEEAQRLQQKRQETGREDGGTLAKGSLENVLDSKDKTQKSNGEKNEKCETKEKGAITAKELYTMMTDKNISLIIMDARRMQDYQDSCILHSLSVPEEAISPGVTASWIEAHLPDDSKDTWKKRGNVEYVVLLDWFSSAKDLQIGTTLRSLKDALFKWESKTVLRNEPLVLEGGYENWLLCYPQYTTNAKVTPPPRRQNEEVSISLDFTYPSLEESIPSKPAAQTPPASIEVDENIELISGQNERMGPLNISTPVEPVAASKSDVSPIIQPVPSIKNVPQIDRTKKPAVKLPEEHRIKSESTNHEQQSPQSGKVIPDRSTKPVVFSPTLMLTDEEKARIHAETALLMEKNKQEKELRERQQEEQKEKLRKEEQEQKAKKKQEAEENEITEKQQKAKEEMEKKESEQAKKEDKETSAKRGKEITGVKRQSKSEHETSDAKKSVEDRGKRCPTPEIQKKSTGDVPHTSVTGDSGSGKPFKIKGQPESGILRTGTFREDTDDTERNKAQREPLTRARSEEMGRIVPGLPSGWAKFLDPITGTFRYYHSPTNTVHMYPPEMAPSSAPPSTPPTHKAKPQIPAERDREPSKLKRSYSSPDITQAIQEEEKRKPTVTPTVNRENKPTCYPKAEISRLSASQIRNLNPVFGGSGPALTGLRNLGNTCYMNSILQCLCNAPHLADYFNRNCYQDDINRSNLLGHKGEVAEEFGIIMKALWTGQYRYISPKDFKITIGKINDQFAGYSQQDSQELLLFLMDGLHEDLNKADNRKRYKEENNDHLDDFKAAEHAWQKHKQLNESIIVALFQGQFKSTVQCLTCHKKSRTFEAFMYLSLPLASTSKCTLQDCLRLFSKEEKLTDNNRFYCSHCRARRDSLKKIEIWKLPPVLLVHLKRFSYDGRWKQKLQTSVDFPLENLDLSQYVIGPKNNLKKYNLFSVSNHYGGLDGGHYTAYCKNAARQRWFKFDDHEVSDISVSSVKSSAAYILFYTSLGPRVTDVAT

[5] = molecular target: T2, Ubiquitin carboxyl-terminal hydrolase 4 (Homo sapiens) (UniProt Q13107); assay: Inhibition of human USP4 (1 to 932 residues) expressed in Sf9 cells using ubiquitin rhodamine 110 as substrate assessed as remaining enzyme activity at 10 to 50 uM by fluorometric assay; settings: dose 10-50 µM
T2 sequence (whole entry): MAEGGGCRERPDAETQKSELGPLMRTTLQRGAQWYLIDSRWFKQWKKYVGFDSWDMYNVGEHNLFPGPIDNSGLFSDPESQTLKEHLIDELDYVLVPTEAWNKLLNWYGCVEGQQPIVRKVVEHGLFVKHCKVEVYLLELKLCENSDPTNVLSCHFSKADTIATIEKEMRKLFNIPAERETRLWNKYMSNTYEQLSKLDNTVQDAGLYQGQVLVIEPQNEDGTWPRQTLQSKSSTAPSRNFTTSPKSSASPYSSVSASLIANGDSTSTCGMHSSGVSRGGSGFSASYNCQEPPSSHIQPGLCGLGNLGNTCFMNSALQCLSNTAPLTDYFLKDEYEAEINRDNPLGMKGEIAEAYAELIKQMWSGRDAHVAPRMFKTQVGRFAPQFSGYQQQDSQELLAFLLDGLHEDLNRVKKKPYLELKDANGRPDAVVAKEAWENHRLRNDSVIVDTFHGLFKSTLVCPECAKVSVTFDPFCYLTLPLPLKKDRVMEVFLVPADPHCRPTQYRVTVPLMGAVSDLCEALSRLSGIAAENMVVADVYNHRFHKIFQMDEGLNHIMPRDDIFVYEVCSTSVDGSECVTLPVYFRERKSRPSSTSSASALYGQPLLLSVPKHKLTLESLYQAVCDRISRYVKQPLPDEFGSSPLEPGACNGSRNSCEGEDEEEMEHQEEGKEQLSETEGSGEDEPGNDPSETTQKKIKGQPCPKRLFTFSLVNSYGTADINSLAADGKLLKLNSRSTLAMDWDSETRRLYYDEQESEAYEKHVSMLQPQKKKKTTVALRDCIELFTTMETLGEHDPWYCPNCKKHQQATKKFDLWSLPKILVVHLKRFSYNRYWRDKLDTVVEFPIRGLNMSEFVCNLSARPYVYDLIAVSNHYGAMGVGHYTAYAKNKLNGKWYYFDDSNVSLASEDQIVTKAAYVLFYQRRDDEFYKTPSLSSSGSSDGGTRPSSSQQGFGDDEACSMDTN

[6] = molecular target: T3, Ubiquitin carboxyl-terminal hydrolase 30 (Homo sapiens) (UniProt Q70CQ3); assay: Inhibition of human USP30 (57 to 517 residues) expressed in Sf9 cells using ubiquitin rhodamine 110 as substrate assessed as remaining enzyme activity at 10 to 50 uM by fluorometric assay; settings: dose 10-50 µM
T3 sequence (whole entry): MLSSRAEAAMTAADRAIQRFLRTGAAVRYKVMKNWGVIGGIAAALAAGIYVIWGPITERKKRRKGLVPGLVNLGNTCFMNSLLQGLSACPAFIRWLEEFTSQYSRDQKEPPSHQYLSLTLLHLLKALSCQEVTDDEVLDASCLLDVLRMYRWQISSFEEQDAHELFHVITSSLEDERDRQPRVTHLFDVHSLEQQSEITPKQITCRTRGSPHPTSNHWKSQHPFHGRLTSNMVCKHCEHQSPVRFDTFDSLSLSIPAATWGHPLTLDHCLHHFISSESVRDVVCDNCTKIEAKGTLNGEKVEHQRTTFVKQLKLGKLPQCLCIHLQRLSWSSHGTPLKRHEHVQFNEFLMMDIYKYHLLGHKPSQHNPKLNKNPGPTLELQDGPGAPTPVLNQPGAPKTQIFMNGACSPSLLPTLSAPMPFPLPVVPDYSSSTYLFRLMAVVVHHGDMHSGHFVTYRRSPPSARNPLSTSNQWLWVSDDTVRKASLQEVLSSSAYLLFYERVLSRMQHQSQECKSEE

Structure (SMILES) | Activity [1] | inhibition [2] | Activity [3] | inhibition [4] | Activity [5] [%] | Activity [6] [%]
CC(C)C[C@H](NC(=O)C1(C(F)(F)F)CCCCC1)C(=O)Nc1nnc(Cc2ccc(C#N)cc2)s1 | inactive | inactive | inactive | inactive |  | 
CC(NC(=O)C1CCCC1)C(=O)Nc1nnc(Cc2ccc([N+](=O)[O-])cc2)s1 (racemic) |  |  |  |  | < 50 | < 50
